Data from ChEMBL document CHEMBL5108050, “Discovery of a New Class of Uracil Derivatives as Potential Mixed Lineage Kinase Domain-like Protein (MLKL) Inhibitors” (J Med Chem, 2022).
Active and inactive are the calls of the source. The rule behind the calls is not given here.

Key:
[1] = system: HT-29; assay: Anti-necroptic activity in human HT-29 KO cells expressing MLKL K157A mutant assessed as inhibition of TSZ (TNFalpha, Smac mimetic and z-VAD-FMK) induced MLKL K157A mutant mediated necroptosis incubated for 24 hrs by celltiter-glo luminescent cell viability assay; type: functional, cell-based
[2] = target: T1, Mixed lineage kinase domain-like protein (Homo sapiens) (UniProt Q8NB16); assay: Inhibition of human MLKL in human HT-29 cells assessed as inhibition of TSZ (TNFalpha, Smac mimetic and z-VAD-FMK) induced MLKL oligomerization at 5 uM and measured after 6 hrs by immunoblot assay; type: cell-based
T1 sequence (whole entry): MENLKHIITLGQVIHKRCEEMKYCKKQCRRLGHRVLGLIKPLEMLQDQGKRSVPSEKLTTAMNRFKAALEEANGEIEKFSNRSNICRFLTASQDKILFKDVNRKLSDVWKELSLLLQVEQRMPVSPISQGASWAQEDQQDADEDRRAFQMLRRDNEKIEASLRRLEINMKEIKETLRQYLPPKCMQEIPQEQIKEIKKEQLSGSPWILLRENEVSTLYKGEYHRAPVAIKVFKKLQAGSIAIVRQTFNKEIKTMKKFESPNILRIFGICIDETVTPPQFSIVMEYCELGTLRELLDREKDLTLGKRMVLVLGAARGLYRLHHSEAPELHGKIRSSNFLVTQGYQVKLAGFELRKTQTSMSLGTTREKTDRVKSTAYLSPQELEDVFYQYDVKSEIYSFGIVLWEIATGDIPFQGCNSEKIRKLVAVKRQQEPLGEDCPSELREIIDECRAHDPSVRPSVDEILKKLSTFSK

[3] = target: Receptor-interacting serine/threonine-protein kinase 3 (Homo sapiens) (UniProt Q9Y572); assay: Inhibition of full length RIP3 (unknown origin) assessed as substrate phosphorylation using MBP and ATP as substrate at 10 uM preincubated for 15 mins followed by substrate addition and measured after 90 mins by ADP-Glo luminescence assay; values are per cent of control; conditions: time 105.0 min
[4] = target: T1, Mixed lineage kinase domain-like protein (Homo sapiens); assay: Displacement of biotin-tagged TCI3136 binding from human recombinant MLKL at Cys86 residues in human HT-29 cell lysate assessed as biotin labeled ligand-protein complex pull down at 5 uM preincubated with compound for 1 hr followed by probe addition for 1 hrs and further incubated with biotinylation of probe by click chemistry reaction for 2 hrs by pull-down assay; type: subcellular; conditions: time 4.0 hrs
[5] = target: T2, Receptor-interacting serine/threonine-protein kinase 1 (Homo sapiens) (UniProt Q13546); assay: Inhibition of RIP1 (1 to 375 residues) (unknown origin) assessed as substrate phosphorylation using MBP and ATP as substrate at 1 uM preincubated for 15 mins followed by substrate addition and measured after 90 mins by ADP-Glo luminescence assay; values are per cent of control; conditions: time 105.0 min
T2 sequence (whole entry): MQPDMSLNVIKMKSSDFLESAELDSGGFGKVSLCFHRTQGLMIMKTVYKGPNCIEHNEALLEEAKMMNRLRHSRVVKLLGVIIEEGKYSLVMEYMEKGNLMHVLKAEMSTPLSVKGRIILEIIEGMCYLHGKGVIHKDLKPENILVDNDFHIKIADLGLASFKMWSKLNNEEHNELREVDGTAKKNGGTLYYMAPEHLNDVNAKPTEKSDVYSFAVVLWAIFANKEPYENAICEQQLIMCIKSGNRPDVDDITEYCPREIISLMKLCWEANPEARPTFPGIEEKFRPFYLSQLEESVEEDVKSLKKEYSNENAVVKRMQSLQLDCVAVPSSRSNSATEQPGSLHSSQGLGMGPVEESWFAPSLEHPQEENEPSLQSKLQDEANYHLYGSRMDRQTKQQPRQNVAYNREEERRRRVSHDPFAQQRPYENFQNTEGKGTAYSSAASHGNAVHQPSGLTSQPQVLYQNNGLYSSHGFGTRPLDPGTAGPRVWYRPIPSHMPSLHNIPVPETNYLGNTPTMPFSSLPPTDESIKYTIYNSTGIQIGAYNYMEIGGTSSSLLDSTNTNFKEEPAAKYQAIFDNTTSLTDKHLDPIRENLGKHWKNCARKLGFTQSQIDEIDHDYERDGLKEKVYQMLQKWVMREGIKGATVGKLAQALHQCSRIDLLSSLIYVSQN

[6] = target: Receptor-interacting serine/threonine-protein kinase 3 (Homo sapiens) (UniProt Q9Y572); assay: Inhibition of full length RIP3 (unknown origin) assessed as substrate phosphorylation using MBP and ATP as substrate at 1 uM preincubated for 15 mins followed by substrate addition and measured after 90 mins by ADP-Glo luminescence assay; values are per cent of control; conditions: time 105.0 min
[7] = target: T2, Receptor-interacting serine/threonine-protein kinase 1 (Homo sapiens); assay: Inhibition of RIP1 (1 to 375 residues) (unknown origin) assessed as substrate phosphorylation using MBP and ATP as substrate at 10 uM preincubated for 15 mins followed by substrate addition and measured after 90 mins by ADP-Glo luminescence assay; values are per cent of control; conditions: time 105.0 min
[8] = target: T1, Mixed lineage kinase domain-like protein (Homo sapiens); assay: Inhibition of FLAG-tagged human MLKL in human HT-29 cells assessed as inhibition of TSZ (TNFalpha, Smac mimetic and z-VAD-FMK) induced MLKL phosphorylation by measuring dispersed phosphorylated MLKL in cytoplasm at 1 uM and measured after 8 hrs by Hoechst 33342 staining based immunofluorescence analysis; type: cell-based
[9] = target: T1, Mixed lineage kinase domain-like protein (Homo sapiens); assay: Inhibition of human MLKL in human HT-29 cells assessed as inhibition of TSZ (TNFalpha, Smac mimetic and z-VAD-FMK) induced MLKL oligomerization at 1 uM and measured after 6 hrs by immunoblot assay; type: cell-based
[10] = GSH reactivity in DPBS buffer assessed as fold decrease in reaction rate by UPLC-MS analysis relative to control; type: ADME
[11] = system: HT-29; assay: Anti-necroptic activity in human HT-29 cells assessed as inhibition of TSZ (TNFalpha, Smac mimetic and z-VAD-FMK) induced necroptosis incubated for 24 hrs by celltiter-glo luminescent cell viability assay; type: functional, cell-based; conditions: HT-29, 24 h
[12] = target: T1, Mixed lineage kinase domain-like protein (Homo sapiens); assay: Inhibition of human MLKL in human HT-29 cells assessed as inhibition of TSZ (TNFalpha, Smac mimetic and z-VAD-FMK) induced MLKL translocation to cell membrane at 1 uM and measured after 8 hrs by western blot analysis; type: cell-based
[13] = target: T1, Mixed lineage kinase domain-like protein (Homo sapiens); assay: Inhibition of human MLKL in human HT-29 cells assessed as inhibition of TSZ (TNFalpha, Smac mimetic and z-VAD-FMK) induced MLKL oligomerization at 200 nM and measured after 6 hrs by immunoblot assay; type: cell-based
[14] = system: HT-29; assay: Anti-necroptic activity in human HT-29 KO cells expressing MLKL F148A mutant assessed as inhibition of TSZ (TNFalpha, Smac mimetic and z-VAD-FMK) induced MLKL F148A mutant mediated necroptosis incubated for 24 hrs by celltiter-glo luminescent cell viability assay; type: functional, cell-based
[15] = GSH reactivity in DPBS buffer assessed as conjugation half life by UPLC-MS analysis; type: ADME; conditions: glutathione (GSH) in DPBS buffer
[16] = target: T1, Mixed lineage kinase domain-like protein (Homo sapiens); assay: Inhibition of FLAG-tagged human MLKL in human HT-29 cells assessed as inhibition of TSZ (TNFalpha, Smac mimetic and z-VAD-FMK) induced MLKL phosphorylation at 1 uM and measured after 8 hrs by Hoechst 33342 staining based immunofluorescence analysis; type: cell-based
[17] = system: MEF; assay: Anti-necroptic activity in mouse MEF cells assessed as inhibition of TSZ (TNFalpha, Smac mimetic and z-VAD-FMK) induced necroptosis incubated for 24 hrs by celltiter-glo luminescent cell viability assay; type: functional, cell-based
[18] = target: T2, Receptor-interacting serine/threonine-protein kinase 1 (Homo sapiens); assay: Inhibition of TSZ (TNFalpha, Smac mimetic and z-VAD-FMK) induced RIPK1 phosphorylation in human HT-29 cells assessed as decrease in phosphorylated RIPK1 level incubated for 8 hrs by western blot analysis; type: cell-based
[19] = system: HT-29; assay: Anti-necroptic activity in human HT-29 cells assessed as inhibition of TSZ induced necroptosis incubated for 1 hr followed by compound washout and further induced with TSZ by celltiter-glo luminescent cell viability assay; type: functional, cell-based; conditions: HT-29, 1 h
[20] = target: T1, Mixed lineage kinase domain-like protein (Homo sapiens); assay: Covalent binding affinity to human recombinant MLKL at Cys86 residue assessed as covalent additive product formation by LC-MS/MS analysis
[21] = system: HT-29; assay: Anti-necroptic activity in human HT-29 cells assessed as inhibition of TSZ induced necroptosis incubated for 3 hrs followed by TSZ stimulation by celltiter-glo luminescent cell viability assay; type: functional, cell-based; conditions: HT-29, 3 h
[22] = system: HT-29; assay: Anti-necroptic activity in human HT-29 cells assessed as inhibition of TSZ induced necroptosis incubated for 3 hr followed by compound washout and further induced with TSZ by celltiter-glo luminescent cell viability assay; type: functional, cell-based; conditions: HT-29, 3 h
[23] = system: HT-29; assay: Anti-necroptic activity in human HT-29 cells assessed as inhibition of TSZ induced necroptosis incubated for 5 min followed by compound washout and further induced with TSZ by celltiter-glo luminescent cell viability assay; type: functional, cell-based; conditions: HT-29, 5 min

Chain of Receptor-interacting serine/threonine-protein kinase 3 (Homo sapiens) (Q9Y572 whole entry, looked up, the tested form may be a part): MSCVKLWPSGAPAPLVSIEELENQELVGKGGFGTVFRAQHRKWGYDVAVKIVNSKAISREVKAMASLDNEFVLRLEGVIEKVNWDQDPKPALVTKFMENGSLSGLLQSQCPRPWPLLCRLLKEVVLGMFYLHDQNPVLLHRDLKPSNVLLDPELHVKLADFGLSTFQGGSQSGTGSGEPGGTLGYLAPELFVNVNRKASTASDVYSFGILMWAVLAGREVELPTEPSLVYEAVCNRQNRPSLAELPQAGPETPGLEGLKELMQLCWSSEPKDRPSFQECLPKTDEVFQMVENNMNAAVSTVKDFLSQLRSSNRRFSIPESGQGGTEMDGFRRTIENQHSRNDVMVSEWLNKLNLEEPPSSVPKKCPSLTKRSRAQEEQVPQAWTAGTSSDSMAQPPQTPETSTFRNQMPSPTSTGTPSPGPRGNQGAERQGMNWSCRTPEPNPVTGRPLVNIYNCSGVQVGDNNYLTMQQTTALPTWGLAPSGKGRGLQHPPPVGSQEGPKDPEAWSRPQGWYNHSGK

| residual activity [3] [%] | Activity [4] | residual activity [6] [%] | residual activity [7] [%] | inhibition [9] | fold change (FC) [10] | inhibition [12] | Compound | inhibition [1] | EC50 [11] [nM] | also measured |
| --- | --- | --- | --- | --- | --- | --- | --- | --- | --- | --- |
|  |  |  |  |  |  |  | COc1nccnc1NSc1ccc(NC(=O)/C=C/c2ccc([N+](=O)[O-])s2)cc1 | Active |  | inhibition [2]: Active |
| 110 | Active | 110 | 101 | Active | 150 | Active | COc1cccn(Cc2cc(C#CCn3c(Cl)c(NC(=O)CCc4ccc(C)cc4)c(=O)n(C)c3=O)ccc2O)c1=O | Active | 31 | residual activity [5]: 117%; inhibition [8]: Active |
|  |  |  |  |  |  |  | Cn1c(=O)c2c(nc(S(C)(=O)=O)n2C)n(CC#Cc2cccc(O)c2)c1=O | Active | 2 | inhibition [13]: Active; inhibition [14]: Active; half-life [15]: 20 min |
|  |  |  |  |  |  |  | CCC(C)(C)C(=O)N(O)Cc1ccccc1 |  |  | inhibition [16]: Active; inhibition [17]: Active; inhibition [18]: Active |
| 99.8 | Active | 100 | 82.6 | Active | 150 | Active | Cc1ccc(CCC(=O)Nc2c(Cl)n(CC#Cc3ccc(O)c(Cn4ccccc4=O)c3)c(=O)n(C)c2=O)cc1 | Active | 82 | EC50 [19]: 584 nM; Activity [20]: Active; EC50 [21]: 188 nM; EC50 [22]: 180 nM; EC50 [23]: > 10000 nM |
